The values that follow come from publication PMC3364000 (Vaccine, 2009).

Among the targets are HLA-DRB5*0101 (Homo sapiens, UniProt P01903+Q30154); HLA-DRB1*0401 (Homo sapiens, UniProt P01903+P01911, A100K/A169T/F76Y/I96L/K127E/L162R/M171V/N62H/P40V/Q125Y/R42H/S133A/S149N/S66Y/V115G/V209L/W38E); HLA-DRB1*0404 (Homo sapiens, UniProt P01903+P01911, A100R/A169T/F76Y/I96L/K127E/L162R/M171V/N62H/P40V/Q125Y/R42H/S133A/S149N/S66Y/V209L/W38E); HLA-DRB1*1501 (Homo sapiens, UniProt P01903+P01911); HLA-DRB1*0701 (Homo sapiens, UniProt P01903+P01911, A100R/A102G/A103Q/D57E/D86V/E43K/F76Y/K127E/L162R/M171V/P40G/Q125H/Q99D/R33Q/R42Y/R54Q/S133A/S66F/T210M/V115G/Y107V/Y59L/Y89S); HLA-DRB1*0901 (Homo sapiens, UniProt P01903+P01911, A100R/A103E/D57H/D86V/F55Y/F60I/F76Y/I96F/K127E/L162R/M171V/P40D/Q125H/Q99R/R33Q/R42F/S133A/S66N/T210M/V115G/W38K/Y107V/Y59G/Y89S); HLA-DRB1*0802 (Homo sapiens, UniProt P01903+P01911, A100R/A103L/A169T/F76Y/H45Y/I96F/K41T/L162R/M171V/P40S/Q125H/Q178H/Q39Y/Q99D/R218S/R42G/S66Y/V115G/W38E); HLA-DRB1*1101 (Homo sapiens, UniProt P01903+P01911, A100R/A169T/A87E/I96F/K41T/L162R/M171V/P40S/Q125H/Q178H/Q39Y/Q99D/R42S/S66Y/T262R/V115G/W38E); HLA-DRB1*0101 (Homo sapiens, UniProt P01903+P01911, A100R/D57E/F55L/F60I/F76Y/I96L/L162R/M171V/P40L/Q125E/R42F/V115G/Y59C); HLA-DRB1*0405 (Homo sapiens, UniProt P01903+P01911, A100R/A169T/D86S/F76Y/I96L/K127E/L162R/M171V/N62H/P40V/Q125Y/R42H/S133A/S149N/S66Y/V115G/V209L/W38E); HLA-DRB4*0101 (Homo sapiens, UniProt P01903+P13762, G164S); HLA-DRB1*0301 (Homo sapiens, UniProt P01903+P01911, A100K/A102G/A103R/A169T/F55Y/I96L/K41T/L162R/M171V/P40S/Q125H/Q178H/Q39Y/R42S/S66N/T106N/T262R/W38E/Y61H); HLA-DRB1*1302 (Homo sapiens, UniProt P01903+P01911, A100E/A169T/K41T/L162R/M171V/P40S/Q125H/Q178H/Q39Y/Q99D/R42S/S66N/T262R/V115G/W38E/Y61H).

Assay in all cases: biochemical
Common to all, as to format: binding

Structures are written as SMILES. Peptide text beside a SMILES is read from it.

HLA-DRB1*0301, sequence (P01903 26-254, other chains not shown): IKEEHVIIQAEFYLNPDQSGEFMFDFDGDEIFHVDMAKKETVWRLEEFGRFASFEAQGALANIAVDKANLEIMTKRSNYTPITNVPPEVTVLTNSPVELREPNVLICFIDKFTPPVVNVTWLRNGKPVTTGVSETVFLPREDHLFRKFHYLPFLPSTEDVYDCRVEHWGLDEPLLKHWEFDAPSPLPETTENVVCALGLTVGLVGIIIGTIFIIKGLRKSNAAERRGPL
HLA-DRB1*1302, sequence (P01903 26-254 limits assumed, other chains not shown): as the sequence (P01903 26-254, other chains not shown) above
HLA-DRB1*1101, sequence (P01903 26-254 limits assumed, other chains not shown): as the sequence (P01903 26-254, other chains not shown) above

As for `CC[C@H](C)[C@H](NC(=O)[C@H](C)NC(=O)CNC(=O)[C@@H](N)CCC(=O)O)C(=O)N[C@H](C(=O)NCC(=O)N[C@@H](CCC(=O)O)C(=O)N[C@H](C(=O)N[C@@H](CO)C(=O)N1CCC[C@H]1C(=O)N[C@@H](CC(C)C)C(=O)N1CCC[C@H]1C(=O)N[C@@H](CO)C(=O)N[C@@H](CC(C)C)C(=O)N1CCC[C@H]1C(=O)NCC(=O)N[C@@H](Cc1c[nH]cn1)C(=O)N[C@H](C(=O)N[C@@H](CC(=O)O)C(=O)O)[C@@H](C)O)[C@@H](C)CC)C(C)C` [NS1.153], the IC50 at HLA-DRB5*0101 was 1140 nM; against HLA-DRB1*0401, 14 nM; against HLA-DRB1*0404 it was 6 nM; against HLA-DRB1*1501, 7 nM; on HLA-DRB1*0701, > 10000 nM; against HLA-DRB1*0901, 6.36 µM. Also, the IC50 on HLA-DRB1*0802 stood at 227 nM; against HLA-DRB1*1101 it was 88 nM; against HLA-DRB1*0101, 64 nM; against HLA-DRB1*0405 it was 98 nM; on HLA-DRB4*0101 it was 131 nM; against HLA-DRB1*0301, 8.33 µM. In addition, the IC50 against HLA-DRB1*1302 turned out to be 1770 nM.

`CC[C@H](C)[C@H](N)C(=O)NCC(=O)N[C@@H](CCCNC(=N)N)C(=O)N[C@@H](Cc1ccccc1)C(=O)N[C@@H](Cc1ccc(O)cc1)C(=O)N[C@H](C(=O)N[C@@H](CCC(N)=O)C(=O)N[C@@H](CCSC)C(=O)N[C@@H](CS)C(=O)N[C@H](C(=O)N[C@@H](CCC(=O)O)C(=O)N[C@@H](CC(C)C)C(=O)N[C@@H](CCCCN)C(=O)N[C@@H](CC(C)C)C(=O)N[C@@H](CO)C(=O)N[C@@H](CC(=O)O)C(=O)N[C@@H](Cc1ccc(O)cc1)C(=O)N[C@@H](CCC(=O)O)C(=O)NCC(=O)O)[C@@H](C)O)[C@@H](C)CC` [NP.36] (H-IGRFYIQMCTELKLSDYEG-OH): the IC50 against HLA-DRB5*0101 came out at 28 nM; against HLA-DRB1*0401, 53 nM; at HLA-DRB1*0404 it was 116 nM; against HLA-DRB1*1501 it was 23 nM; at HLA-DRB1*0701, 443 nM; against HLA-DRB1*0901, 0.193 µM. Further, the half-maximal inhibitory concentration (IC50) against HLA-DRB1*0802 turned out to be 486 nM; at HLA-DRB1*1101 it was 236 nM; on HLA-DRB1*0101 it was 31 nM; on HLA-DRB1*0405, 29 nM; at HLA-DRB4*0101, 210 nM; against HLA-DRB1*0301 it was 0.291 µM. On HLA-DRB1*1302, inhibition was half-maximal at 2700 nM (IC50).

At HLA-DRB1*1501, `CC[C@H](C)[C@H](NC(=O)[C@H](CCC(N)=O)NC(=O)[C@H](CCC(=O)O)NC(=O)[C@@H](N)Cc1ccccc1)C(=O)N[C@H](C(=O)N[C@@H](Cc1ccccc1)C(=O)N[C@@H](CCSC)C(=O)N[C@@H](CCC(N)=O)C(=O)N[C@@H](C)C(=O)N[C@@H](CC(C)C)C(=O)N[C@@H](CCC(N)=O)C(=O)N[C@@H](CC(C)C)C(=O)N[C@@H](CC(C)C)C(=O)N[C@@H](CC(C)C)C(=O)N[C@@H](CCC(=O)O)C(=O)O)[C@@H](C)O` [NS2.94] returned a concentration for half-maximal inhibition (IC50) of 10 nM.

In the case of `CSCC[C@H](NC(=O)[C@H](Cc1c[nH]c2ccccc12)NC(=O)[C@@H](NC(=O)[C@H](CC(C)C)NC(=O)[C@H](CCC(N)=O)NC(=O)[C@H](CO)NC(=O)[C@@H](N)CCCCN)C(C)C)C(=O)N[C@@H](C)C(=O)N[C@@H](CS)C(=O)N[C@@H](Cc1c[nH]cn1)C(=O)N[C@@H](CO)C(=O)N[C@@H](C)C(=O)N[C@@H](C)C(=O)N[C@@H](Cc1ccccc1)C(=O)N[C@@H](CCC(=O)O)C(=O)O` [NP.325], the values for the IC50 at HLA-DRB1*0404, on HLA-DRB1*0101 and against HLA-DRB1*1302 were 34 nM, 35 nM and > 10000 nM, respectively.

Take `CC[C@H](C)[C@H](NC(=O)[C@H](CO)NC(=O)[C@H](CC(N)=O)NC(=O)[C@@H](N)CCC(N)=O)C(=O)N[C@H](C(=O)N[C@H](C(=O)N[C@@H](CCC(=O)O)C(=O)N[C@@H](CCCNC(=N)N)C(=O)N[C@@H](CCSC)C(=O)N[C@H](C(=O)N[C@@H](CC(C)C)C(=O)N[C@@H](CO)C(=O)N[C@@H](C)C(=O)N[C@@H](Cc1ccccc1)C(=O)N[C@@H](CC(=O)O)C(=O)O)C(C)C)[C@@H](C)CC)[C@@H](C)O` [NP.58]: the IC50 at HLA-DRB5*0101 is > 10000 nM; on HLA-DRB1*0404, 188 nM.

With `CC[C@H](C)[C@H](NC(=O)[C@H](CCCCN)NC(=O)[C@H](CC(N)=O)NC(=O)[C@H](C)NC(=O)[C@H](CCCCN)NC(=O)[C@H](CCC(=O)O)NC(=O)[C@H](CC(C)C)NC(=O)[C@H](Cc1ccc(O)cc1)NC(=O)[C@H](Cc1ccc(O)cc1)NC(=O)[C@@H](NC(=O)[C@H](Cc1c[nH]cn1)NC(=O)[C@@H](NC(=O)[C@H](CCC(=O)O)NC(=O)[C@H](CCCNC(=N)N)NC(=O)[C@@H](N)CCCNC(=N)N)C(C)C)[C@@H](C)CC)C(=O)O` [PA.124], the IC50 is 4 nM against HLA-DRB1*1501 and > 10 µM against HLA-DRB1*0301.

As for `CC[C@H](C)[C@H](NC(=O)CNC(=O)[C@@H](NC(=O)[C@@H](NC(=O)[C@H](CO)NC(=O)[C@H](C)NC(=O)[C@H](C)NC(=O)[C@@H](NC(=O)[C@@H](NC(=O)[C@H](CC(C)C)NC(=O)[C@@H]1CCCN1C(=O)[C@@H](N)CC(=O)O)C(C)C)C(C)C)[C@@H](C)CC)[C@@H](C)CC)C(=O)N[C@@H](CC(C)C)C(=O)N[C@@H](Cc1c[nH]cn1)C(=O)N[C@@H](CC(C)C)C(=O)O` [M2.24], the IC50 at HLA-DRB5*0101 was > 10000 nM; at HLA-DRB1*0301 it was > 10 µM.

Usually IC50 stands for the midpoint of a concentration-inhibition curve.
